{"source": "patent US12377118B2", "about": "“Nanoparticle constructs for systemic co-delivery of anti-tumor agents” (CASE WESTERN RESERVE UNIVERSITY, priority 2019, dated 2025)", "origin": "cited, not measured here", "system": "4T1 orthotopic mammary tumor", "conditions": "i.t.", "data": [{"smiles": "Nc1nc2c(ncn2[C@@H]2O[C@@H]3COP(=O)(O)O[C@H]4[C@@H](O)[C@H](n5cnc6c(=O)[nH]c(N)nc65)O[C@@H]4COP(=O)(O)O[C@H]3[C@H]2O)c(=O)[nH]1", "note": "[free cdGMP, cyclic diguanylate monophosphate]", "values": [{"measurement": "dose needed to regress early 4T1 primary tumors", "result": "up to 50 μg"}]}]}
